According to ChEMBL document CHEMBL3616474, “Synthesis of arabinose glycosyl sulfamides as potential inhibitors of mycobacterial cell wall biosynthesis” (2015):
Converted amounts (≈) assume the structure as drawn.

Tested on: Mycolicibacterium smegmatis
Assay: Antimicrobial activity against Mycobacterium smegmatis incubated for 18 hrs by Alamar blue assay
Format: functional

| SMILES | MIC90 [µg/mL] |
| --- | --- |
| CCCCCCCCCCNS(N)(=O)=O | 500 (≈ 2120 µM) |
| CCCCCCNS(=O)(=O)N[C@H]1OC[C@@H](O)[C@@H](O)[C@@H]1O | > 1000 |
| CCCCCCCCNS(=O)(=O)N[C@H]1OC[C@@H](O)[C@@H](O)[C@@H]1O | 500 (≈ 1470 µM) |
| CCCCCCCCCCNS(=O)(=O)N[C@H]1OC[C@@H](O)[C@@H](O)[C@@H]1O | 62 (≈ 168 µM) |
| CCCCCCCCCCCCCCNS(=O)(=O)N[C@H]1OC[C@@H](O)[C@@H](O)[C@@H]1O | > 1000 |
| CC(C)CCCC(C)CCNS(=O)(=O)N[C@H]1OC[C@@H](O)[C@@H](O)[C@@H]1O (stereo not given in full) | 125 (≈ 339 µM) |
| O=S(=O)(NCCOCCOCCO)N[C@H]1OC[C@@H](O)[C@@H](O)[C@@H]1O | > 1000 |
| O=S(=O)(NCCOCCOCCOCCO)N[C@H]1OC[C@@H](O)[C@@H](O)[C@@H]1O | > 1000 |

The remaining lines, values ahead:

| MIC90 [µg/mL] | SMILES |
| --- | --- |
| 250 (≈ 630 µM) | CCCCCCCCCCCCNS(=O)(=O)N[C@H]1OC[C@@H](O)[C@@H](O)[C@@H]1O |
| 125 (≈ 315 µM) | CCCCCCN(CCCCCC)S(=O)(=O)N[C@H]1OC[C@@H](O)[C@@H](O)[C@@H]1O |
| 500 (≈ 1100 µM) | CCCCCCCCN(CCCCCCCC)S(=O)(=O)N[C@H]1OC[C@@H](O)[C@@H](O)[C@@H]1O |
| > 1000 | CCCCCCCCCCN(CCCCCCCCCC)S(=O)(=O)N[C@H]1OC[C@@H](O)[C@@H](O)[C@@H]1O |
| > 1000 | CCCCCCCCCCCCN(CCCCCCCCCCCC)S(=O)(=O)N[C@H]1OC[C@@H](O)[C@@H](O)[C@@H]1O |
| > 1000 | O=S(=O)(NCCOCCO)N[C@H]1OC[C@@H](O)[C@@H](O)[C@@H]1O |
| 4 (≈ 29.2 µM) | NNC(=O)c1ccncc1 [ISONIAZID] |
